Experimental data: US20250127790A1, “COMBINATION THERAPY USING VPS34 INHIBITORS” (Deciphera Pharmaceuticals, LLC, priority 2021, published 2025)

Experiments:
[1] = system: A-498 renal cell carcinoma cells; experiment: qRT-PCR, combination with STING agonist ADU-S100, A-498 cells; format: cell-based, Human; conditions: 2 μM Compound 1 or 2, 50 μM ADU-S100, 24 h
Protocol: A-498 cells were grown in Minimal Essential Medium containing 10% fetal bovine serum. Cells were then incubated for 2 days at 37 degrees Celsius, 5% CO2, and 95% humidity. A-498 cells were treated with DMSO control, 2 μM Compound 1 or 2 μM Compound 2 in combination with 50 μM STING agonist ADU-S100 for 24 h. Cells were washed with PBS and RNA was isolated using the PureLink RNA kit (#12183018A, Thermo Fisher Scientific) according to the manufacturer's protocol. Genomic DNA was removed using DNA-binding columns (RNeasy plus kit, #74134, Qiagen) and/or DNase treatment (#12185010, Thermo Fisher Scientific). RNA was quantified using NanoDrop (Thermo Fisher Scientific) and 50 ng/μL RNA was used for cDNA synthesis with SuperScript IV VILO Master Mix (#11756050, Thermo Fisher Scientific). Quantitative RT-PCR (qRT-PCR) was run with diluted cDNA (1:25 or 1:12.5), PowerUp SYBR Green Master Mix (#A25741, Thermo Fisher Scientific), and 200 nM primers (see below) on a CFX Connect RT-PCR system (BioRad). Data was analyzed using the ΔΔCT method. Results are mean±SEM of three independent experiments.

[2] = system: 786-O renal cell carcinoma cells; experiment: qRT-PCR, combination with STING agonist ADU-S100, 786-O cells; format: cell-based, Human; conditions: 2 μM Compound 1 or 2, 50 μM ADU-S100, 24 h
Protocol: 786-O cells were grown in RPMI-1640 medium containing 10% fetal bovine serum. Cells were then incubated for 2 days at 37 degrees Celsius, 5% CO2, and 95% humidity. […] cells were treated with DMSO control, 2 μM Compound 1 or 2 μM Compound 2 in combination with 50 μM STING agonist ADU-S100 for 24 h. Cells were washed with PBS and RNA was isolated using the PureLink RNA kit (#12183018A, Thermo Fisher Scientific) according to the manufacturer's protocol. Genomic DNA was removed using DNA-binding columns (RNeasy plus kit, #74134, Qiagen) and/or DNase treatment (#12185010, Thermo Fisher Scientific). RNA was quantified using NanoDrop (Thermo Fisher Scientific) and 50 ng/μL RNA was used for cDNA synthesis with SuperScript IV VILO Master Mix (#11756050, Thermo Fisher Scientific). Quantitative RT-PCR (qRT-PCR) was run with diluted cDNA (1:25 or 1:12.5), PowerUp SYBR Green Master Mix (#A25741, Thermo Fisher Scientific), and 200 nM primers (see below) on a CFX Connect RT-PCR system (BioRad). Data was analyzed using the ΔΔCT method. Results are mean±SEM of three independent experiments.

[3] = system: A-498 renal cell carcinoma cells; experiment: Cytokine secretion assay, combination with ADU-S100, A-498 cells; format: cell-based, human; conditions: 2 μM Compound 1 or 2, 50 μM ADU-S100, 24 h
Protocol: (§1) A-498 cells were treated with DMSO control, 2 μM Compound 1 or 2 μM Compound 2 in combination with 50 μM STING agonist ADU-S100 for 24 h. Cell culture medium was centrifuged at 1600 rpm for 10 min at 4° C. and obtained supernatant stored at −80° C. Cytokine levels were quantified using following Meso Scale Discovery (MSD) assays: human R-PLEX RANTES/CCL5 (#F21ZN), U-PLEX CXCL10/IP-10 (#K151UFK). Assays were run on the SECTOR Quickplex Imager and analyzed using Discovery Workbench version 4.0 (MSD). Low concentrations of human IFNβ were determined using High Sensitivity IFN Beta ELISA Kit, (PBL assay science, #41415-1).

[4] = system: 786-O renal cell carcinoma cells; experiment: Cytokine secretion assay, combination with ADU-S100, 786-O cells; format: cell-based, human; conditions: 2 μM Compound 1 or 2, 50 μM ADU-S100, 24 h
Protocol: as §1, with “786-O” for “A-498”

B16-F10 melanoma cells = experiment: qRT-PCR, combination with ADU-S100, B16-F10 cells; format: cell-based, Murine; conditions: for IFNB1 mRNA expression: 2 μM Compound 1 or 2, 10 μM ADU-S100, 4 h; for CCL5 mRNA expression / CXCL10 mRNA expression: 2 μM Compound 1 or 2, 10 μM ADU-S100, 24 h
Protocol: B16-F10 cells were grown in DMEM/F12 medium containing 10% fetal bovine serum. Cells were then incubated for 2 days at 37 degrees Celsius, 5% CO2, and 95% humidity. […] cells were reversely transfected with scrambled siRNA control (siSCR) or siRNA targeting STING (siSTING). […] Cells were washed with PBS and RNA was isolated using the PureLink RNA kit (#12183018A, Thermo Fisher Scientific) according to the manufacturer's protocol. Genomic DNA was removed using DNA-binding columns (RNeasy plus kit, #74134, Qiagen) and/or DNase treatment (#12185010, Thermo Fisher Scientific). RNA was quantified using NanoDrop (Thermo Fisher Scientific) and 50 ng/μL RNA was used for cDNA synthesis with SuperScript IV VILO Master Mix (#11756050, Thermo Fisher Scientific). Quantitative RT-PCR (qRT-PCR) was run with diluted cDNA (1:25 or 1:12.5), PowerUp SYBR Green Master Mix (#A25741, Thermo Fisher Scientific), and 200 nM primers (see below) on a CFX Connect RT-PCR system (BioRad). Data was analyzed using the ΔΔCT method. Results are mean±SEM of three independent experiments.

Nc1ncnc2c1ncn2[C@@H]1O[C@@H]2COP(=O)([S-])O[C@@H]3[C@H](O)[C@@H](COP([O-])(=S)O[C@H]2[C@H]1O)O[C@H]3n1cnc2c(N)ncnc21.[Na+].[Na+] (stereo partly drawn) [ADU-S100, reference compound]
did not increase: IFNB1 mRNA expression (B16-F10 melanoma cells)
increased: CCL5 mRNA expression [1] | CXCL10 mRNA expression [1] | CCL5 mRNA expression [2]
mildly increased: CCL5 secretion [3] | CXCL10 secretion [3]
did increase: CCL5 mRNA expression (B16-F10 melanoma cells) | CXCL10 mRNA expression (B16-F10 melanoma cells)
mild effect: IFNβ secretion [4]
no effect: IFNB1 mRNA expression [1] | CXCL10 mRNA expression [2] | IFNB1 mRNA expression [2] | IFNβ secretion [3]
significantly increased: CCL5 secretion [4] | CXCL10 secretion [4]

C[C@@H]1COCCN1c1cc(N2CCCC[C@@H]2C(F)(F)F)[nH]c(=O)c1 [Compound 1, 4-((R)-3-methylmorpholino)-6-((R)-2-(trifluoromethyl)piperidin-1-yl)pyridin-2(1H)-one]
mildly increased: CCL5 mRNA expression [1] | CXCL10 mRNA expression [1] | IFNB1 mRNA expression [1]
mildly increase: CCL5 mRNA expression (B16-F10 melanoma cells) | CXCL10 mRNA expression (B16-F10 melanoma cells)
did not increase: IFNB1 mRNA expression (B16-F10 melanoma cells)
increased: CCL5 mRNA expression [2] | CXCL10 mRNA expression [2] | IFNB1 mRNA expression [2] | CCL5 secretion [3] | CXCL10 secretion [3] | IFNβ secretion [3] | CCL5 secretion [4] | CXCL10 secretion [4] | IFNβ secretion [4]

C[C@@H]1COCCN1c1cc(=O)n2c(n1)N(Cc1cncc(Cl)c1)[C@H](C(F)(F)F)CC2 [Compound 2, (S)-9-((5-chloropyridin-3-yl)methyl)-2-((R)-3-methylmorpholino)-8-(trifluoromethyl)-6,7,8,9-tetrahydro-4H-pyrimido[1,2-a]pyrimidin-4-one]
increased: CCL5 mRNA expression [2] | CXCL10 mRNA expression [2] | IFNB1 mRNA expression [2] | CCL5 secretion [3] | CXCL10 secretion [3] | IFNβ secretion [3] | CCL5 secretion [4] | CXCL10 secretion [4] | IFNβ secretion [4]
mildly increase: CCL5 mRNA expression (B16-F10 melanoma cells) | CXCL10 mRNA expression (B16-F10 melanoma cells)
mildly increased: CCL5 mRNA expression [1] | CXCL10 mRNA expression [1] | IFNB1 mRNA expression [1]
did not increase: IFNB1 mRNA expression (B16-F10 melanoma cells)
